# Patent US10221172B2, “Benzothiazole and benzisothiazole-substituted compounds as mGluR4 allosteric potentiators, compositions, and methods of treating neurological dysfunction” (Vanderbilt University, priority 2015, dated 2019)
# pEC50: −log10 of the molar value.
# Target: human mGluR4 (Homo sapiens (Human), UniProt Q14833)
# Assay: mGluR4 potentiation assay, CHO cells transfected with human mGluR4, Ca2+-sensitive dye, EC20 agonist
# Assay type: cell-based
# Conditions: potentiation of mGluR4
# Experimental: The disclosed compounds and compositions can be evaluated for their ability to act as a potentiator of metabotropic glutamate receptor activity, in particular mGluR4 activity, by any suitable known methodology known in the art. For example, Chinese Hamster Ovary (CHO) cells transfected with human mGluR4 or HEK cells co-transfected with rat mGluR4 and the G-protein regulated Inwardly Rectifying Potassium channel (GIRK) were plated in clear bottom assay plates for assay in a Hamamatsu FDSS Fluorometric Plate Reader. The cells were loaded with either a Ca2+-sensitive fluorescent dye or the thallium responsive dye and the plates were washed and placed into a suitable kinetic plate reader. For human mGluR4 assays, a fluorescence baseline was established for 3-5 seconds, the disclosed compounds were then added to the cells, and the response in cells was measured. Approximately two and a half minutes later, a concentration of mGluR4 orthosteric agonist (e.g. glutamate or L-AP4) eliciting approximately 20% (EC20) of the maximal agonist response was added to the cells, and the response was measured. Two minutes later, a concentration of mGluR4 agonist (e.g. glutamate or L-AP4) eliciting 80% (EC80) of the maximal agonist response was added to the cells, and the response was measured. For rat mGluR4/GIRK experiments, a baseline was established for approximately five seconds, disclosed compounds were added, and either an EC20 or EC80 concentration of agonist was added approximately two and one half minutes later. Potentiation of the agonist response of mGluR4 by the disclosed compounds was observed as an increase in response to the EC20 concentration of agonist in the presence of compound compared to the response to agonist in the absence of compound. Similarly, antagonism of the agonist response of mGluR4 by the disclosed compounds was observed as a decrease in response to the EC80 concentration of agonist in the presence of compound compared to the response to agonist in the absence of compound.
# The above described assay operated in two modes. In the first mode, a range of concentrations of the disclosed compounds are added to cells, followed by a single fixed concentration of agonist. If the compound acts as a potentiatior, an EC50 value for potentiation and a maximum extent of potentiation by the compound at this concentration of agonist is determined by non-linear curve fitting. If the compound acts as a noncompetitive antagonist, an IC50 value is determined by non-linear curve fitting. In the second mode, several fixed concentrations of the disclosed compounds are added to various wells on a plate, followed by a range in concentrations of agonist for each concentration of disclosed compound. The EC50 values for the agonist at each concentration of compound are determined by non-linear curve fitting. A decrease in the EC50 value of the agonist with increasing concentrations of the sample compound (a leftward shift of the agonist concentration-response curve) is an indication of the degree of mGluR4 potentiation at a given concentration of the sample compound. A decrease in the maximal response of the agonist with increasing concentrations of the sample compounds, with or without a rightward shift in agonist potency, is an indication of the degree of noncompetitive antagonism at mGluR4. The second mode also indicates whether the sample compounds also affect the maximum response to mGluR4 to agonists.
# [1] = main compound table, species not given
# [2] = summary list repeated at the end of the table, species not stated
# Sequence of human mGluR4 (Q14833 33-912): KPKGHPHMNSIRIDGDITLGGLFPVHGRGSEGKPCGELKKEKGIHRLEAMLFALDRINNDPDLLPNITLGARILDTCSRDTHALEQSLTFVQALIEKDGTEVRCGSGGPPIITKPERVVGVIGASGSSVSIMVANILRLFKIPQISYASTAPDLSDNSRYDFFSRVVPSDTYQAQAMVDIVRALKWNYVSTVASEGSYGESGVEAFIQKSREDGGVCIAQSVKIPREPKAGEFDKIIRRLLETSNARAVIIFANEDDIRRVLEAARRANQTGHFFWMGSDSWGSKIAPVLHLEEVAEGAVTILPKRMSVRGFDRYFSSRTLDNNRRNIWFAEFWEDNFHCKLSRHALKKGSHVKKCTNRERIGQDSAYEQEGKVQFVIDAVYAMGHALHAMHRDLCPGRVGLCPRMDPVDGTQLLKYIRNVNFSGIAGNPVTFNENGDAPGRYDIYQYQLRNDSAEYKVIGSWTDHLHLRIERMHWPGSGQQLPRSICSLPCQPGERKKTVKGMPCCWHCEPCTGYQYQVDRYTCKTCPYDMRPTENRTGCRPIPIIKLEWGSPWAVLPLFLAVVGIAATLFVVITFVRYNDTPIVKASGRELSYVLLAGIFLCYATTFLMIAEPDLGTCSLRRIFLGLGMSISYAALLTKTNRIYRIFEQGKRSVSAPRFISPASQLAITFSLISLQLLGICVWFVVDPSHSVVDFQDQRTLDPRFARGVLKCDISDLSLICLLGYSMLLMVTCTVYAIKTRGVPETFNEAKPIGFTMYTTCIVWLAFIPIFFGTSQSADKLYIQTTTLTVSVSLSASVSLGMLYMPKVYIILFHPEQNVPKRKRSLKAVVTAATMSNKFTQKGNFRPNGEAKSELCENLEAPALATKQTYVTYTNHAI
SMILES,pEC50 [1],pEC50 [2]
"O=C(c1nsc2cc(Nc3n[nH]c4nccnc34)ccc12)N1CCC(F)(F)CC1 [Example 33, (6-((1H-pyrazolo[3,4-b]pyrazin-3-yl)amino)benzo[d]isothiazol-3-yl)(4,4-difluoropiperidin-1-yl) methanone]",6.08,6.08
"CC(C)(C)Cc1nsc2cc(Nc3n[nH]c4ncccc34)cnc12 [Example 28, 3-neopentyl-N-(1H-pyrazolo[3,4-b]pyridin-3-yl) isothiazolo[4,5-b] pyridin-6-amine]",6.92,6.92
"CC(=O)N1CCC(c2nsc3cc(Nc4n[nH]c5cccnc45)ccc23)CC1 [Example 35, 1-(4-(6-((1H-pyrazolo[4,3-b]pyridin-3-yl)amino)benzo[d]isothiazol-3-yl)piperidin-1-yl)ethan-1-one]",6.70,6.70
"c1cnc2c(Nc3ccc4c(C5CC5)nsc4c3)n[nH]c2n1 [Example 37, 3-cyclopropyl-N-(1H-pyrazolo [3,4-b]pyrazin-3-yl)benzo [d]isothiazol-6-amine]",7.21,7.21
"CC(C)(C)c1nsc2cc(Nc3n[nH]c4cccnc34)ccc12 [Example 25, 3-(tert-butyl)-N-(1H-pyrazolo[4,3-b]pyridin-3-yl)benzo[d]isothiazol-6-amine]",–,6.48
"O=C(c1nsc2cc(Nc3n[nH]c4cccnc34)ccc12)N1CCOCC1 [Example 6, (6-((1H-pyrazolo [4,3-b]pyridin-3-yl)amino)benzo[d]isothiazol-3-yl)(morpholino) methanone]",6.52,6.52
"CC1CCN(C(=O)c2nsc3cc(Nc4n[nH]c5cccnc45)ccc23)CC1 [Example 19, (6-((1H-pyrazolo [4,3-b]pyridin-3-yl)amino)benzo[d]isothiazol-3-yl) (4-methylpiperidin-1-yl)methanone]",6.39,6.39
"CCCc1nsc2cc(Nc3n[nH]c4nccnc34)ccc12 [Example 24, 3-propyl-N-(1H-pyrazolo[3,4-b]pyrazine-3-yl)benzo[d]isothiazol-6-amine]",7.63,7.63
"O=C(c1nsc2cc(Nc3n[nH]c4cccnc34)ccc12)N1CCC(F)(F)CC1 [Example 5, (6-((1H-pyrazolo[4,3-b]pyridin-3-yl)amino)benzo[d]isothiazol-3-yl) (4,4-difluoropiperidin-1-yl) methanone]",7.22,7.22
"CC(C)(C)Cc1nsc2cc(Nc3n[nH]c4nccnc34)cnc12 [Example 27, 3-neopentyl-N-(1H-pyrazolo[3,4-b]pyrazin-3-yl) isothiazole[4,5-b] pyridin-6-amine]",7.00,7.00
"Cc1nsc2ccc(Nc3n[nH]c4cccnc34)cc12 [Example 1, 3-methyl-N-(1H-pyrazolo[4,3-b]pyridin-3-yl)benzo[d]isothiazol-5-amine]",6.73,6.73
"CC(C)(C)Cc1nsc2cc(Nc3n[nH]c4cccnc34)ccc12 [Example 2, 3-neopentyl-N-(1H-pyrazolo[4,3-b]pyridin-3-yl)benzo[d] isothiazol-6-amine]",6.55,6.55
"O=C(c1nsc2cc(Nc3n[nH]c4cccnc34)ccc12)N1CCS(=O)(=O)CC1 [Example 8, (6-((1H-pyrazolo [4,3-b]pyridin-3-yl)amino)benzo[d]isothiazol-3-yl)(1,1-dioxido-thiomorpholino) methanone]",6.87,6.87
"CCc1nsc2cc(Nc3n[nH]c4cccnc34)cnc12 [Example 41, 3-ethyl-N-(1H-pyrazolo[4,3-b]pyridin-3-yl)isothiazolo [4,5-b]pyridin-6-amine]",7.42,7.42
"CCC(C)c1nsc2cc(Nc3n[nH]c4cccnc34)cnc12 (centres unmarked) [Example 40, 3-(sec-butyl)-N-(1H-pyrazolo[4,3-b]pyridin-3-yl)isothiazolo[4,5-b] pyridin-6-amine]",7.27,7.27
"O=C(c1nsc2cc(Nc3n[nH]c4cccnc34)ccc12)N1CCCC1c1ccccn1 (centres unmarked) [Example 11, (6-((1H-pyrazolo [4,3-b]pyridin-3-yl)amino)benzo[d]isothiazol-3-yl)(2-(pyridin-2-yl)pyrrolidin-1-yl) methanone]",< 5.00,< 5.00
"CCCc1nsc2cc(Nc3n[nH]c4cccnc34)ccc12 [Example 23, 3-propyl-N-(1H-pyrazolo [4,3-b]pyridin-3-yl)benzo[d]isothiazol-6-amine]",7.25,7.25
"CN1CCN(C(=O)c2nsc3cc(Nc4n[nH]c5nccnc45)ccc23)CC1=O [Example 32, 4-(6-((1H-pyrazolo[3,4-b]pyrazin-3-yl)amino)benzo [d]isothiazole-3-carbonyl)-1-methylpiperazin-2-one]",5.82,5.82
"CC(C)(O)c1nsc2cc(Nc3n[nH]c4cccnc34)ccc12 [Example 38, 2-(6-((1H-pyrazolo [4,3-b]pyridin-3-yl)amino)benzo[d]isothiazol-3-yl)propan-2-ol]",5.99,5.99
"CC1CN(C(=O)c2nsc3cc(Nc4n[nH]c5cccnc45)ccc23)CC(C)O1 (centres unmarked) [Example 7, (6-((1H-pyrazolo [4,3-b]pyridin-3-yl)amino)benzo[d]isothiazol-3-yl) (2,6-dimethyl-morpholino) methanone]",6.51,6.51

# Second part, the compound after the results:
pEC50 [1],pEC50 [2],SMILES
6.25,6.25,"CN(Cc1nsc2cc(Nc3n[nH]c4ncccc34)cnc12)C1CC(F)(F)C1 [Example 53, 3-(((3,3-difluorocyclobutyl) (methyl)amino)methyl)-N-(1H-pyrazolo[3,4-b]pyridin-3-yl)isothiazolo[4,5-b]pyridin-6-amine]"
6.83,6.83,CC1(C)CN(Cc2nsc3cc(Nc4n[nH]c5cccnc45)cnc23)CCO1 [Example 60]
7.25,7.25,"FC1(F)CCCN(Cc2nsc3cc(Nc4n[nH]c5cccnc45)cnc23)C1 [Example 61, 3-((3,3-difluoropiperidin-1-yl)methyl)-N-(1H-pyrazolo[4,3-b]pyridin-3-yl)isothiazolo[4,5-b] pyridin-6-amine]"
5.69,5.69,"c1ccc(-c2nsc3cc(Nc4n[nH]c5ncccc45)ccc23)cc1 [Example 44, 3-phenyl-N-(1H-pyrazolo [3,4-b]pyridin-3-yl)benzo[d]isothiazol-6-amine]"
7.09,7.09,"FC1(F)CCN(Cc2nsc3cc(Nc4n[nH]c5cccnc45)cnc23)CC1 [Example 50, 3-((4,4-difluoropiperidin-1-yl)methyl)-N-(1H-pyrazolo[4,3-b]pyridin-3-yl) isothiazolo[4,5-b]pyridin-6-amine]"
6.45,6.45,"C[C@H]1CN(Cc2nsc3cc(Nc4n[nH]c5cccnc45)cnc23)CCO1 [Example 59, (S)-3-((2-methylmorpholino)methyl)-N-(1H-pyrazolo[4,3-b]pyridin-3-yl)isothiazolo[4,5-b] pyridin-6-amine]"
6.61,6.61,"FC1CCN(Cc2nsc3cc(Nc4n[nH]c5cccnc45)cnc23)CC1 [Example 51, 3-((4-fluoropiperidin-1-yl)methyl)-N-(1H-pyrazolo[4,3-b]pyridin-3-yl)isothiazolo[4,5-b] pyridin-6-amine]"
7.00,7.00,"CCc1nsc2cc(Nc3n[nH]c4ncccc34)cnc12 [Example 42, 3-ethyl-N-(1H-pyrazolo[3,4-b]pyridin-3-yl)isothiazolo [4,5-b]pyridin-6-amine]"
7.00,7.00,"FC1(F)CCCN(Cc2nsc3cc(Nc4n[nH]c5ncccc45)cnc23)C1 [Example 62, 3-((3,3-difluoropiperidin-1-yl)methyl)-N-(1H-pyrazolo[3,4-b]pyridin-3-yl)isothiazolo[4,5-b] pyridin-6-amine]"
5.43,5.43,"c1cnc2c(Nc3cnc4c(CN5CCCC5)nsc4c3)n[nH]c2c1 [Example 58, N-(1H-pyrazolo[4,3-b]pyridin-3-yl)-3-(pyrrolidin-1-ylmethyl) isothiazolo [4,5-b]pyridin-6-amine]"
